Assay results reported in publication PMC8815882, “Screening the pandemic response box identified benzimidazole carbamates, Olorofim and ravuconazole as promising drug candidates for the treatment of eumycetoma” (PLoS Neglected Tropical Diseases, 2022).
Where two headings read alike, the source gives them in different places.

Tested on: M. mycetomatis genome strain MM55
Experiment: CLSI M38-A2 based in vitro susceptibility screening (XTT or resazurin), growth at fixed concentration
Format: cell-based, Madurella mycetomatis
Conditions: Madurella mycetomatis; for Percent fungal survival at 100 µM: read-out: Percentage survival at 100um, 100 uM A (second replicate column)
[1] = mean, read-out: Percentage survival at 25um, 25 uM mean
[2] = replicate A, read-out: Percentage survival at 25um, 25 um A
[3] = replicate B, read-out: Percentage survival at 25um, 25 uM B
[4] = replicate C, read-out: Percentage survival at 25um, 25 uM C
[5] = mean, read-out: Percentage survival at 100um, 100 uM mean
[6] = replicate (first column), read-out: Percentage survival at 100um, 100 uM A
[7] = replicate (second column), read-out: Percentage survival at 100um, 100 uM A
[8] = replicate (third column), read-out: Percentage survival at 100um, 100 uM A
[9] = mean of three, M. mycetomatis MM55, read-out: Percentage survival at 25um, 25 uM mean
[10] = replicate A, M. mycetomatis MM55, read-out: Percentage survival at 25um, 25 um A
[11] = replicate B, M. mycetomatis MM55, read-out: Percentage survival at 25um, 25 uM B
[12] = replicate C, M. mycetomatis MM55, read-out: Percentage survival at 25um, 25 uM C
[13] = mean of three, M. mycetomatis MM55, read-out: Percentage survival at 100um, 100 uM mean
[14] = replicate 1, M. mycetomatis MM55, read-out: Percentage survival at 100um, 100 uM A (first replicate column)
[15] = replicate 2, M. mycetomatis MM55
[16] = replicate 3, M. mycetomatis MM55, read-out: Percentage survival at 100um, 100 uM A (third replicate column)
[17] = mean of replicates, read-out: Percentage survival at 25um, 25 uM mean
[18] = mean of replicates, read-out: Percentage survival at 100um, 100 uM mean
[19] = replicate 1, read-out: Percentage survival at 100um, 100 uM A
[20] = replicate 2, read-out: Percentage survival at 100um, 100 uM A
[21] = replicate 3, read-out: Percentage survival at 100um, 100 uM A

| SMILES | activity at 25 µM [1] | activity at 25 µM [2] | activity at 25 µM [3] | activity at 25 µM [4] | activity at 100 µM [5] | activity at 100 µM [6] | activity at 100 µM [7] | activity at 100 µM [8] | activity at 25 µM [9] | activity at 25 µM [10] | activity at 25 µM [11] | activity at 25 µM [12] | activity at 100 µM [13] | activity at 100 µM [14] | Percent fungal survival at 100 µM [15] | activity at 100 µM [16] | activity at 25 µM [17] | activity at 100 µM [18] | activity at 100 µM [19] | activity at 100 µM [20] | other results |
| --- | --- | --- | --- | --- | --- | --- | --- | --- | --- | --- | --- | --- | --- | --- | --- | --- | --- | --- | --- | --- | --- |
| CCCCSc1nc(N)c2[nH]c(=O)c(=O)n(Cc3ccccc3)c2n1 [MMV1579783] | 74.7% | 95.5% | 58.6% | 70% | 54.9% | 84% | 5.11% | 75.6% |  |  |  |  |  |  |  |  |  |  |  |  |  |
| O=C(Nc1ccccc1C(=O)O)c1cccc(Oc2ccccc2)c1 [MMV1579784] |  |  |  |  |  |  |  |  | 90.7% | 75.3% | 85.5% | 111% | 90.8% | 88.1% | 112% | 72.2% |  |  |  |  |  |
| N#CCN1C(=O)COc2cc(F)c(N3C(=O)c4ccccc4C3=O)cc21 [MMV1579785] |  | 78.3% | 91.5% | 73.8% |  |  |  |  |  |  |  |  |  |  |  |  | 81.2% | 88.3% | 83.8% | 94.2% | activity at 100 µM [21]: 87% |
| NCCCc1ccccc1C(=O)Nc1ncc([N+](=O)O)s1 [MMV1579786] |  |  |  |  |  |  |  |  | 82.7% | 85.5% | 82.6% | 80.1% | 76.6% | 71.4% | 83.2% | 75.1% |  |  |  |  |  |
| O=C(CP(=O)(O)O)NCCc1cccc(Oc2ccccc2)c1 [MMV1579787] | 79.8% | 84.6% | 81.7% | 73.2% | 46.3% | -0.0188% | 65.7% | 73.3% |  |  |  |  |  |  |  |  |  |  |  |  |  |
| Cc1c(CN(C)C(=O)/C=C/c2cnc3c(c2)C(C)(C)C(=O)N3)oc2ccccc12 [MMV1579788] |  | 69.6% | 89.2% | 68.5% |  |  |  |  |  |  |  |  |  |  |  |  | 75.8% | 90.5% | 57.9% | 71.3% | activity at 100 µM [21]: 142% |
| N=C(N)c1ccc(COc2ccc(Cl)cc2)cc1 [MMV1579844] |  |  |  |  |  |  |  |  | 73% | 69.6% | 72.8% | 76.5% | 73.6% | 55.9% | 97.7% | 67.2% |  |  |  |  |  |
| O=C(NCc1cccc2ccccc12)c1cccs1 [MMV1579845] | 55.9% | 59.6% | 48.9% | 59.3% | 35% | 90% | 6.29% | 8.86% |  |  |  |  |  |  |  |  |  |  |  |  |  |
| COc1cc(Cc2cc(N)nc(N)n2)cc(OC)c1OC [MMV1579846] |  | 87.9% | 75.2% | 79.5% |  |  |  |  |  |  |  |  |  |  |  |  | 80.9% | 95.4% | 83.5% | 94.2% | activity at 100 µM [21]: 108% |
| Cc1ccn2c(C(=O)NCc3ccccc3)c(C)nc2c1 [MMV1579847] |  | 90.2% | 66.1% | 92.5% |  |  |  |  |  |  |  |  |  |  |  |  |  |  |  |  | activity at 25 µM (mean of three replicates, read-out: Percentage survival at 25um, 25 uM mean): 82.9%; activity at 100 µM (mean of three replicates, read-out: Percentage survival at 100um, 100 uM mean): 61.9%; activity at 100 µM (replicate 1, read-out: Percentage survival at 100um, 100 uM A (first replicate column)): 72.5%; Percent fungal survival at 100 µM (replicate 2): 55.8%; activity at 100 µM (replicate 3, read-out: Percentage survival at 100um, 100 uM A (third replicate column)): 57.5% |
